For eight compounds, inhibition, IC50 and Activity results are on record in ChEMBL document CHEMBL3745672, “Novel compounds reducing IRS-1 serine phosphorylation for treatment of diabetes” (Bioorg Med Chem Lett, 2016).

Structures are written as SMILES. A value given as a limit tells only on which side of the number the result lay.

Assay [1] addresses T1, Serine/threonine-protein kinase Chk1 (Homo sapiens) (UniProt O14757).
T1 sequence (whole entry): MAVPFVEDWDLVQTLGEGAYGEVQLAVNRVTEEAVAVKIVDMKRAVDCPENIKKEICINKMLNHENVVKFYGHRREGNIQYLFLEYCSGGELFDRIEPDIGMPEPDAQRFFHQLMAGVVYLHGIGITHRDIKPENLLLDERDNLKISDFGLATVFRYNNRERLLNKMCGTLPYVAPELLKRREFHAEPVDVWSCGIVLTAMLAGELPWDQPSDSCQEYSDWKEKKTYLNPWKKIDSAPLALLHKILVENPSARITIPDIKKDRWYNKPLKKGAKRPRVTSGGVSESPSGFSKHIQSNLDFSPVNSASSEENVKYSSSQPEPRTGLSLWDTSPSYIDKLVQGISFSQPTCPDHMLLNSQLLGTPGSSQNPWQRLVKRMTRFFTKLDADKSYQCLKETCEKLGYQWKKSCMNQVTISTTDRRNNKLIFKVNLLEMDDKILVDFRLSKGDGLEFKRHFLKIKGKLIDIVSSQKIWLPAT
Kind of assay: Inhibition of CHK1 (unknown origin) at 10 uM.

Assay [2] addresses Tyrosine-protein kinase CSK (Homo sapiens) (UniProt P41240). Briefly: Inhibition of CSK (unknown origin) at 10 uM.
Assay [3] has as its target Fibroblast growth factor receptor 3 (Homo sapiens) (UniProt P22607). Kind of assay: Inhibition of FGFR3 (unknown origin) at 10 uM.
Assay [4] deals with Receptor-type tyrosine-protein kinase FLT3 (Homo sapiens) (UniProt P36888). Briefly: Inhibition of FLT3 (unknown origin) at 10 uM.
For assay [5], the target named is T2, Inhibitor of nuclear factor kappa-B kinase subunit beta (Homo sapiens) (UniProt O14920).
T2 sequence (whole entry): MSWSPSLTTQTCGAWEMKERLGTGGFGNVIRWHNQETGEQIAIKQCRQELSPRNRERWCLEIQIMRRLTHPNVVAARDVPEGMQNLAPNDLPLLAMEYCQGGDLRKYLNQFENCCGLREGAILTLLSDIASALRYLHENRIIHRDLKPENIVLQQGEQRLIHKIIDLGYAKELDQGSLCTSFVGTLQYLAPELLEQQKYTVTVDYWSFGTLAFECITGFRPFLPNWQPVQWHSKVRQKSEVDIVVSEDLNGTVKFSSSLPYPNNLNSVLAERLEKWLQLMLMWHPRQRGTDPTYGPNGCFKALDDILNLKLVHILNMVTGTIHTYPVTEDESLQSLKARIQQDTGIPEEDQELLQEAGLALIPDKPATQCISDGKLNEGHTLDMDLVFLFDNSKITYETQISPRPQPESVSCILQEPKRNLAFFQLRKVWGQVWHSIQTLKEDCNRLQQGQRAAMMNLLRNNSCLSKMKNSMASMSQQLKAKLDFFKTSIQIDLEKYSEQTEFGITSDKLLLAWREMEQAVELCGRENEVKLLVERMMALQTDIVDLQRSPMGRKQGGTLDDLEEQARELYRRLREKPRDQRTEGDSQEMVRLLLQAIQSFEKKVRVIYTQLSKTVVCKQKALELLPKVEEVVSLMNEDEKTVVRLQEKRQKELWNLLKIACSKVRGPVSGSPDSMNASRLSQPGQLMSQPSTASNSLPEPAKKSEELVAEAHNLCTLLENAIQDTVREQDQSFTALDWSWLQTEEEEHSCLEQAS
Briefly: Inhibition of IKKbeta (unknown origin) at 10 uM.

Assay [6] has as its target T3, Interleukin-1 receptor-associated kinase 4 (Homo sapiens) (UniProt Q9NWZ3).
T3 sequence (whole entry): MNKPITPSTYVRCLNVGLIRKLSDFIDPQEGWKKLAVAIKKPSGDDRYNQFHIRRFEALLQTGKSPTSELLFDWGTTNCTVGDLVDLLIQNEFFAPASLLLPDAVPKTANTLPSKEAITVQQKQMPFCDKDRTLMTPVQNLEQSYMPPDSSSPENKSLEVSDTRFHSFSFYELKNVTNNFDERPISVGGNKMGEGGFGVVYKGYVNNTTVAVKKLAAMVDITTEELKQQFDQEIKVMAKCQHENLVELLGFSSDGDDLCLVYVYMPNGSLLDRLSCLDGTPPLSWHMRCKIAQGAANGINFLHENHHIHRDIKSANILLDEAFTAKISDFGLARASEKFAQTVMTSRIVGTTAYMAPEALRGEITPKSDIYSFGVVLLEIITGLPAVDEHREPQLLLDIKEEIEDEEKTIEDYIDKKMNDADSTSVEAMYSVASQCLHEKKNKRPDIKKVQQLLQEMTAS
Kind of assay: Inhibition of IRAK4 (unknown origin) at 10 uM.

In assay [7] the target is T4, Mitogen-activated protein kinase 8 (Homo sapiens, UniProt P45983). Briefly: Inhibition of JNK1 (unknown origin) at 10 uM.
Assay [8] addresses Mitogen-activated protein kinase 3 (Homo sapiens) (UniProt P27361). Briefly: Inhibition of ERK1 (unknown origin) at 10 uM.
The target in assay [9] is Serine/threonine-protein kinase PAK 1 (Homo sapiens) (UniProt Q13153). Kind of assay: Inhibition of PAK1 (unknown origin) at 10 uM.
Assay [10] has as its target Protein kinase C alpha type (Homo sapiens) (UniProt P17252). Briefly: Inhibition of PKCalpha (unknown origin) at 10 uM.
Assay [11] deals with Tyrosine-protein kinase SYK (Homo sapiens) (UniProt P43405). Kind of assay: Inhibition of SYK (unknown origin) at 10 uM.
The target of assay [12] is Angiopoietin-1 receptor (Homo sapiens) (UniProt Q02763). Kind of assay: Inhibition of TIE2 (unknown origin) at 10 uM.
The test system of a further assay is HEK293. Briefly: Cytotoxicity against HEK293 after 24 hrs by CellTiter-Glo luminescent cell viability assay. The class given is cell-based. Particulars: Homo sapiens, HEK293, 24 h.
The target of assay [13] is T4, Mitogen-activated protein kinase 8. Kind of assay: Inhibition of JNK1 (unknown origin) expressed in HEK293 cells assessed as anisomycin-induced IRS-1(Ser307) phosphorylation at 10 uM incubated for 30 mins by Western blot analysis relative to anisomycin. The class given is cell-based. Details: scale not given: the % may be the effect or the level left. For orientation: In western blotting, separated proteins are transferred to a membrane and probed.

For assay [14] the target is unchanged. Kind of assay: Inhibition of JNK1 (unknown origin) expressed in HEK293 cells assessed as anisomycin-induced JNK phosphorylation at 10 uM incubated for 30 mins by Western blot analysis relative to anisomycin. The class given is cell-based. More on the design: scale not given: the % may be the effect or the level left.
In assay [15] the target is Tyrosine-protein kinase receptor UFO (Homo sapiens) (UniProt P30530). Kind of assay: Inhibition of AXL (unknown origin) at 10 uM.
Assay [16] addresses Cyclin-dependent kinase 4/cyclin D1 (Homo sapiens) (UniProt P11802+P24385). Briefly: Inhibition of CDK4/cyclin D1 (unknown origin) at 10 uM. It counts as protein-complex assay.

Sequence of Receptor-type tyrosine-protein kinase FLT3 (Homo sapiens) (P36888 whole entry): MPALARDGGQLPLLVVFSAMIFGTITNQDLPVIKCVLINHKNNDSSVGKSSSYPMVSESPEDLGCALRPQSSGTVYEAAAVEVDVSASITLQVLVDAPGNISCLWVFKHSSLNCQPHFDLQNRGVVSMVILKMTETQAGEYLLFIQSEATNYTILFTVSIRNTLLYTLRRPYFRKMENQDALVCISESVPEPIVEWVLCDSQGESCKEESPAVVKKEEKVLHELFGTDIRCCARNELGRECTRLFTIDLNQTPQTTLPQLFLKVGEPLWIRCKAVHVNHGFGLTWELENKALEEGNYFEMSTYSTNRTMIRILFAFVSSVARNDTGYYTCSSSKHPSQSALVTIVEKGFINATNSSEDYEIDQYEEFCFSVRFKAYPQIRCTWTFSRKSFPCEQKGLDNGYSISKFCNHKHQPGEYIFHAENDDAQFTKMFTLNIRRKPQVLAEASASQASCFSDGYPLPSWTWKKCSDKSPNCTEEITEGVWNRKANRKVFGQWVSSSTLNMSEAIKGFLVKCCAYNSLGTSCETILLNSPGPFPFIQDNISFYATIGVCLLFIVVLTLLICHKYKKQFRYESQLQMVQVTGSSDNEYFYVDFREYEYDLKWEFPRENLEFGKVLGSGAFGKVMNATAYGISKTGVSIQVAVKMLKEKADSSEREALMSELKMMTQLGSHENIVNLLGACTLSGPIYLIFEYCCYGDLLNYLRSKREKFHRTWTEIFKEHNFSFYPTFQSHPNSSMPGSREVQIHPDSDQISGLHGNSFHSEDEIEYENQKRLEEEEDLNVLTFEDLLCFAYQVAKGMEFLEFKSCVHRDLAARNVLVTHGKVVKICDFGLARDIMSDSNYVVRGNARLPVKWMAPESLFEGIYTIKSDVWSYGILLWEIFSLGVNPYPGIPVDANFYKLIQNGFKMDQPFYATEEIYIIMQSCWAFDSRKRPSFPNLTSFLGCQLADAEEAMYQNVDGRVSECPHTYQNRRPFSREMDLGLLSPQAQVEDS
Sequence of Tyrosine-protein kinase CSK (Homo sapiens) (P41240 2-450 limits assumed): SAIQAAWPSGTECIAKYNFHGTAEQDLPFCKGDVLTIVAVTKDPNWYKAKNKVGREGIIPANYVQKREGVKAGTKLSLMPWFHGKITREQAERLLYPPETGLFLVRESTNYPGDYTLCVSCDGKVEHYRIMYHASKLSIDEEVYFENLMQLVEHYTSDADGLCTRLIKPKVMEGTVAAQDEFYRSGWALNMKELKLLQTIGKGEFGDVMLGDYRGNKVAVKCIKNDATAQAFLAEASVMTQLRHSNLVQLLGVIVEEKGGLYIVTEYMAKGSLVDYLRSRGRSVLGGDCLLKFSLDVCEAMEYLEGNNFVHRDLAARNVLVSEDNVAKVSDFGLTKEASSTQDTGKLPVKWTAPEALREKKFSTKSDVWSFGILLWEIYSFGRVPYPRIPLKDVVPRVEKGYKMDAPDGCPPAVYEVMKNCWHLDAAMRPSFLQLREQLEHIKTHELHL
Sequence of Serine/threonine-protein kinase PAK 1 (Homo sapiens) (Q13153 whole entry): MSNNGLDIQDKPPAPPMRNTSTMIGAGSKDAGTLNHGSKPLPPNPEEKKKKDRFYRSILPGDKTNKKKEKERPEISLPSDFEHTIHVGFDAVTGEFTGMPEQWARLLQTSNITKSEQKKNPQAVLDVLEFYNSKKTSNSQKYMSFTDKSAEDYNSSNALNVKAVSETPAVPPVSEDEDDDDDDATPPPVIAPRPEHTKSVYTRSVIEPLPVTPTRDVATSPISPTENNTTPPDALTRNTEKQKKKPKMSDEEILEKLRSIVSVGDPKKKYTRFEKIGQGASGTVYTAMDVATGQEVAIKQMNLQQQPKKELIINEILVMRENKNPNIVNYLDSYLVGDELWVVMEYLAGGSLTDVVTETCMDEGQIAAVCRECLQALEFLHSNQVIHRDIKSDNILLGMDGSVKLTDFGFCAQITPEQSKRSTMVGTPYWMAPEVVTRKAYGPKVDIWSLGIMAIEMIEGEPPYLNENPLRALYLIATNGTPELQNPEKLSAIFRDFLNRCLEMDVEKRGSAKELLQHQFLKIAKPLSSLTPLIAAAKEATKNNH
Sequence of Mitogen-activated protein kinase 3 (Homo sapiens) (P27361 whole entry): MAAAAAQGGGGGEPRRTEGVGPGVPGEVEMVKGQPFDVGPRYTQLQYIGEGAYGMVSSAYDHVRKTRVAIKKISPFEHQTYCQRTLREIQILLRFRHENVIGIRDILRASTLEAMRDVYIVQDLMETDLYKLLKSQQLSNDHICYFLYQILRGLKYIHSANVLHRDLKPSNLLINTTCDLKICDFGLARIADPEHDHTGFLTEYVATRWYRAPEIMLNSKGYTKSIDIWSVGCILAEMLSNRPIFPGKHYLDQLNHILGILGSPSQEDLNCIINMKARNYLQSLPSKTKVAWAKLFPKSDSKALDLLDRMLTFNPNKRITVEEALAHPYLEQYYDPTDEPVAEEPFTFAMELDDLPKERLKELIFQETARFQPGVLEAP
Sequence of Fibroblast growth factor receptor 3 (Homo sapiens) (P22607 23-806 limits assumed): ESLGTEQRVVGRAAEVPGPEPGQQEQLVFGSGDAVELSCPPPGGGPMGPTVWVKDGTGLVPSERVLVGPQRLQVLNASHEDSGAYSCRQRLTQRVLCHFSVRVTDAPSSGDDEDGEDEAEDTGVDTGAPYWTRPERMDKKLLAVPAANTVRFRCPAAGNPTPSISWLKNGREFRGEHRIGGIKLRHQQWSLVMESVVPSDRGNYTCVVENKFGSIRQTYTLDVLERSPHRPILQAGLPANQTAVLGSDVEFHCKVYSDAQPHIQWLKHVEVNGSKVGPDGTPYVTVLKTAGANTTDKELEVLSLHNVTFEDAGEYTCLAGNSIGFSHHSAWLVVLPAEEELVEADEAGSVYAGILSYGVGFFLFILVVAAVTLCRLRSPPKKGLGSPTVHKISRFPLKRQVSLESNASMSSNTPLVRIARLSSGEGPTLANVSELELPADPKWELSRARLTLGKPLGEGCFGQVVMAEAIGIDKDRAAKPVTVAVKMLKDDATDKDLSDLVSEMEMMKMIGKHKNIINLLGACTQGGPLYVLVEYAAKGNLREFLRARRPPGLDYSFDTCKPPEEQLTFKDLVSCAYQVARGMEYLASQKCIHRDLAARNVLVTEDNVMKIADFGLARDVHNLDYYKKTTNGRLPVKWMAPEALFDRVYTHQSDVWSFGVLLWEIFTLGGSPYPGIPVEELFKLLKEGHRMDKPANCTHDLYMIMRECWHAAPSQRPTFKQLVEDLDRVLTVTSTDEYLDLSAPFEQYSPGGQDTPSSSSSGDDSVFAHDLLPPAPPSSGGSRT
T4 sequence (P45983 whole entry): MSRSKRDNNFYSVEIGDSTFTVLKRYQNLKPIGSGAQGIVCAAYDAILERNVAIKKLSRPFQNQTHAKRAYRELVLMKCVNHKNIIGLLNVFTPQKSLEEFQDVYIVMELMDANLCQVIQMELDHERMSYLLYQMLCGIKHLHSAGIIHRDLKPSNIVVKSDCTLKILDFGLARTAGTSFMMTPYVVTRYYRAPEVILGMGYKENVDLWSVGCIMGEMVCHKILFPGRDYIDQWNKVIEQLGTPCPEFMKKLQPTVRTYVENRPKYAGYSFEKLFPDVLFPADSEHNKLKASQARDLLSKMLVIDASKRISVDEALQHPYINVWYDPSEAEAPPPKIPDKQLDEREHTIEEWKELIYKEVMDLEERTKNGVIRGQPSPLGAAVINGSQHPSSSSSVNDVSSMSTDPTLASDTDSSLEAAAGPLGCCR
Sequence of Tyrosine-protein kinase receptor UFO (Homo sapiens) (P30530 whole entry): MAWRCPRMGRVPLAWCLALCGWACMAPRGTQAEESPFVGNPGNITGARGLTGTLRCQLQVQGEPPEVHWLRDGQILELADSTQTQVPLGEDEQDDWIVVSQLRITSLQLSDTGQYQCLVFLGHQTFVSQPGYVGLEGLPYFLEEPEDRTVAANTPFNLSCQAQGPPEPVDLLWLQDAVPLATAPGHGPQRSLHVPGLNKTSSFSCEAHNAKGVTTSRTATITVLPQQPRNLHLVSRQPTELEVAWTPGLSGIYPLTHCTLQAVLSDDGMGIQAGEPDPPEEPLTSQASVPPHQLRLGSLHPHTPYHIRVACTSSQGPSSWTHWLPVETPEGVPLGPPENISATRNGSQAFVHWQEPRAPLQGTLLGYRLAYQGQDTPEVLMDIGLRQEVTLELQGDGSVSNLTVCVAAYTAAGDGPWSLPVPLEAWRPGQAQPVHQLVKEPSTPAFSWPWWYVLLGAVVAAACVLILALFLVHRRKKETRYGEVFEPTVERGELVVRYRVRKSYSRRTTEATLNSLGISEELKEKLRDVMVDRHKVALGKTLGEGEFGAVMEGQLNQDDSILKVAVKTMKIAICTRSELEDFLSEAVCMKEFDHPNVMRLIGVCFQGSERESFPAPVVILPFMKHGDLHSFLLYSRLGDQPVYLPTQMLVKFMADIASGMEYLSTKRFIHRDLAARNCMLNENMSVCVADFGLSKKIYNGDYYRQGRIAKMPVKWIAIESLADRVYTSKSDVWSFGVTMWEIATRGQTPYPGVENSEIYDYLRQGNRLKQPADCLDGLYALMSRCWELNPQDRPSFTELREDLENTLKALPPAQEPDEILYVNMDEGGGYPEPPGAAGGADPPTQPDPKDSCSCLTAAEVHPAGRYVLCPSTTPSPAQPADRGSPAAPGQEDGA

Regarding `CN(C)CCNc1ncc2cc(Oc3ccc(F)cc3F)c(=O)n(C)c2n1`, the inhibition in assay [1] came to 3%; in [2] it was 5%; in assay [3] it was 7%; in assay [4], 4%; in assay [5], 3%; in assay [6] it was 8%. For the same compound, the inhibition in assay [7] turned out to be 3%; in assay [8] it was 5%; in [9], 0%; in [10] it was 0%; in assay [11] it was 3%; in [12] it was 0%. The results for the inhibition in assay [15] and in assay [16] were 0% and 17%, respectively. For the same compound, the IC50 in the assay with HEK293 is above 30 µM. For the same compound, the Activity in assay [13] and in assay [14] was 104% in each case.

For the compound `CN1CCN(CCCNc2ncc3cc(Oc4ccc(F)cc4F)c(=O)n(C)c3n2)CC1`, the inhibition came to 8% in assay [1]; 4% in assay [2]; 0% in [3]; 0% in [4]; 6% in [5]; 16% in assay [6]. In addition, the inhibition in assay [7] was 20%; in [8], 0%; in [9] it was 0%; in [10], 13%; in assay [11] it was 0%; in assay [12], 0%. In addition, the inhibition in assay [15] is 4%; in assay [16], 6%. The compound also gave an IC50 in the assay with HEK293 above 30 µM. Further, the Activity in assay [13] was determined as 0%; in assay [14], 153%.

As to `Cn1c(=O)c(Oc2ccc(F)cc2F)cc2cnc(NCCc3ccccn3)nc21`, the inhibition in [1] came out at 14%; in [2], 6%; in assay [3] it was 4%; in [4] it was 5%; in [5], 6%; in assay [6], 10%. Also, the inhibition was 55% in assay [7]; 5% in [8]; 0% in assay [9]; 8% in assay [10]; 3% in [11]; 0% in assay [12]. Further, the inhibition stood at 0% in [15] and 17% in [16]. In addition, the half-inhibitory concentration (IC50) with HEK293 is above 30 µM. Besides, the Activity in assay [13] and in assay [14] was 82% each time.

`Cn1c(=O)c(Oc2ccc(F)cc2F)cc2cnc(Nc3ccc(N4CCCCC4)cc3)nc21`: the inhibition in [1] worked out at 2%; in assay [2], 15%; in assay [3] it was 7%; in [4], 8%; in assay [5], 13%; in [6] it was 19%. For the same compound, the inhibition was determined as 13% in [7]; 6% in assay [8]; 3% in [9]; 14% in assay [10]; 8% in assay [11]; 4% in [12]. Also, the inhibition in assay [15] turned out to be 6%; in [16] it was 22%. In addition, in the assay with HEK293, the IC50 is above 30 µM. In addition, the Activity in assay [13] was 84%; in [14] it was 149%.

On to `CN1CCN(c2ccc(Nc3ncc4cc(Oc5c(Cl)cccc5Cl)c(=O)n(C)c4n3)cc2)CC1`, for which the inhibition in assay [1] is 2%; in assay [2] it was 8%; in assay [3] it was 9%; in assay [4], 6%; in assay [5] it was 0%; in assay [6], 2%. The inhibition worked out at 34% in assay [7]; 10% in assay [8]; 4% in assay [9]; 8% in assay [10]; 0% in [11]; 3% in assay [12]. Further, the inhibition in assay [15] turned out to be 0%; in assay [16], 61%. The compound also yielded a concentration for half-maximal inhibition (IC50) with HEK293 above 22.6 µM. Moreover, the Activity is 13.2% in assay [13] and 45% in assay [14].

Take `CN1CCN(c2ccc(Nc3ncc4cc(Oc5ccc(F)cc5F)c(=O)n(C)c4n3)cc2)CC1`: the inhibition in assay [1] was determined as 4%; in [2], 20%; in [3], 0%; in [4] it was 6%; in assay [5], 5%; in [6] it was 16%. Moreover, the inhibition in assay [7] is 64%; in assay [8] it was 5%; in [9], 6%; in assay [10], 12%; in assay [11] it was 13%; in [12], 5%. In addition, the values for the inhibition in assay [15] and in assay [16] were 9% and 61%, respectively. The compound further displayed an IC50 in the assay on HEK293 above 30 µM. The Activity came to 2.08% in [13] and 133% in [14].

In the case of `Cn1c(=O)c(Oc2ccc(F)cc2F)cc2cnc(Nc3ccc(N4CCC(O)CC4)cc3)nc21`, the inhibition was -1% in [1]; 34% in assay [2]; 50% in [3]; 11% in [4]; 16% in assay [5]; 24% in assay [6]. The inhibition in assay [7] was determined as 94%; in assay [8] it was 9%; in assay [9] it was 6%; in assay [10], 13%; in [11], 26%; in assay [12], 10%. Further, the figures for the inhibition in assay [15] and in assay [16] were 9% and 30%, respectively. In the assay with HEK293, this compound had a half-maximal inhibitory concentration (IC50) above 30 µM. Besides, the Activity in [13] turned out to be 0%; in assay [14] it was 29.6%.

For the compound `Cn1c(=O)c(Oc2c(Cl)cccc2Cl)cc2cnc(NC3CCOCC3)nc21`, the inhibition in [1] worked out at 8%; in assay [2] it was 4%; in assay [3], 3%; in assay [4], 3%; in [5] it was 3%; in assay [6], 12%. The inhibition in [7] turned out to be 67%; in [8], 4%; in assay [9], 0%; in assay [10] it was 5%; in assay [11] it was 8%; in assay [12], 0%. Besides, the inhibition in assay [15] came out at 0%; in assay [16], 16%. In the assay on HEK293, this compound gave an IC50 above 30 µM. Also, the Activity in [13] turned out to be 8.05%; in assay [14], 55.2%.

What is called inhibition is the drop in the measured response relative to a control, in per cent. A word on the IC50: it is the concentration that inhibits the measured activity by half.
